Series [1] relates to ARH77 cells. The format is cell-based. The following applies: human, 4 days, 2 mM. On the procedure:
To determine the growth inhibitory effects of compounds 2a, SPY, 2c, 2d, ARH77 cells (2×10^4 cells in 100 μl in each well of a 96 well plate) were incubated with each compound or an equivalent amount of DMSO. Four days later, cell growth was determined using the Aqueous One Solution Cell Proliferation Assay (MTS) (Promega) according to the manufacturer's instructions. Each determination was made in triplicate. Relative cell growth was determined by subtracting the absorbance of wells containing medium and lacking cells, and dividing by absorbance values derived from cells treated with an equivalent volume of DMSO.
Reduction of SFZ in the gut to give SPY is thought to be responsible for much of the toxicity associated with therapy. The putative reduction products of the novel SFZ derivatives were associated with increased or decreased toxicity was investigated. ARH77 cells were treated for 4 days with compounds 2a (i.e., putative reduction product of 3a and 3b), 2c (putative reduction product of 3d), and 2d (putative reduction product of 3e and 3f), and SPY (reduction product of SFZ and 3c). Cell growth was determined using an MTS assay. The percent growth inhibition at 2 mM (FIG. 6) was measured. […] Cytotoxicity of 2a and 2c was slightly less than SPY with 27±8% and 24±3% growth inhibition, respectively. 2d was essentially non-toxic in this assay with −6±16% growth inhibition. The ability of compounds 2a, 2c and 2d to interfere with NF-kB activity in LPS treated U937-kBluc cells was also tested.
ARH77 cells were incubated with 2 mM of 2a, 2c, 2d, SPY or DMSO as a solvent control. After 4 days, cell growth was determined using an MTS assay. Percentage growth inhibition for each compound relative to DMSO treated cells was determined. Mean growth inhibition is shown (±SD). Data are derived from two separate experiments, each performed in triplicate.

For series [2], the system named is NF-kB. Description: NF-kB luciferase reporter activity in LPS-stimulated U937-kBluc cells. The conditions noted are these: for average luciferase activity, % of the activity in DMSO treated cells: 2 mM, ±SD; for IC50: Homo sapiens, U937-kBluc cells, LPS 0.3 μg/ml, 6 hours, mean of duplicate determinations ±SD, read-out: IC50 for inhibition of LPS-induced NF-kB activity. In kind it is cell-based, human. On the procedure: U937-kBluc cells were cultured in a 96 well plate (2×10^4 cells in 100 μl in each well) and stimulated with 0.3 μg/ml LPS (lipopolysaccaride; Sigma Aldrich). After 6 hours, cells were collected and luciferase activity determined using the luclite reagent (Perkin Elmer UK, Beaconsfield, UK) and a Packard TopCount (Perkin Elmer), as described by the manufacturer. To determine the effect of SFZ and analogues, various concentrations of each compound or an equivalent amount of DMSO as a solvent control were added 1 hour prior to addition of LPS. Each determination was made in triplicate. A cell line containing an NF-kB reporter construct was used to determine the effects of SFZ analogues on NF-kB activity. Cells were treated with LPS to induce NF-kB activity in the presence or absence of each compound, or DMSO as a solvent control, and luciferase activity analysed as a measure of NF-kB dependent transcription (FIG. 1). […] U937-kBluc cells were treated with LPS to activate NF-kB in the presence of increasing concentrations of SFZ, derivatives (3a-f), or DMSO as a solvent control. For each concentration of compound, the percentage inhibition of luciferase activity relative to cells treated with an equivalent amount of DMSO was calculated. (A) Representative dose response experiment (♦, 3a; ▪, SFZ). Each data point is the mean of triplicate samples (±SEM). (B) Detailed dose response assays were performed for compounds which gave >50% inhibition at 2 mM. The mean IC50 value (±SD) for inhibition of LPS-induced NF-kB activity is derived from 2 independent experiments, each performed in triplicate.

Data on eight compounds can be found in patent US20080090788A1, “Chemical Compounds” (priority 2005, published 2008).

In the case of `COc1ccc(CNS(=O)(=O)c2ccc(N)cc2)cc1` [Compound 2a, N-(p-methoxybenzyl)-4-aminobenzenesulfonamide], the percent growth inhibition in series [1] is reported as 27±8%.
On to `CNS(=O)(=O)c1ccc(N)cc1` [Compound 2c], for which the percent growth inhibition in series [1] amounted to 24±3%.
On the same count and under the same terms, to `Nc1ccc(S(=O)(=O)NCc2ccc(C(F)(F)F)cc2)cc1` [Compound 2d] belongs −6±16%.
What is called IC50 is the concentration at which inhibition is half-maximal. Regarding `COc1ccc(CNS(=O)(=O)c2ccc(/N=N/c3ccc(O)cc3)cc2)cc1` [Compound 3b], in series [2], the “average luciferase activity, % of the activity in DMSO treated cells” value (“average luciferase activity, %” below) was 87.5±3.3% and the IC50 is more than 2000 µM.
`Cc1cc(/N=N/c2ccc(S(=O)(=O)Nc3ccccn3)cc2)cc(C(=O)O)c1O` [Compound 3c, 2-hydroxy-3-methyl-5-[4-(pyridin-2-ylsulfamoyl)-phenylazo]benzoic acid]: the IC50 in series [2] was 1100 ± 40 µM.
Take `CNS(=O)(=O)c1ccc(/N=N/c2ccc(O)c(C(=O)O)c2)cc1` [Compound 3d, 2-hydroxy-5-(4-methylsulfamoyl-phenylazo)-benzoic acid]: the IC50 in series [2] is 1240 ± 106 µM.
Turning to `Nc1ccc(O)c(C(=O)O)c1` [Compound 5-ASA, 5-amino salicylic acid, reference compound], in series [2], the “average luciferase activity, %” value amounted to 121±32% and the IC50 is more than 2000 µM.
As for `Nc1ccc(S(=O)(=O)Nc2ccccn2)cc1` [SPY, sulfapyridine, reference compound], in series [2], the “average luciferase activity, %” value turned out to be 151±71% and the IC50 is more than 2000 µM.
